According to patent publication US20210353749A1, “GUANABENZ AS AN ADJUVANT FOR IMMUNOTHERAPY” (UNIVERSITÉ CATHOLIQUE DE LOUVAIN, priority 2018, published 2021):

What was measured:
[1] = tested on: Mouse TCRP1A CD8+ T cells; assay: CD107 cytotoxicity assay (degranulation assay), mouse T cells; format: cell-based; settings: 16 hours
Experimental: Mouse TCRP1A CD8^+ T cells: P1A-specific (TCRP1A) CD8^+ T cells were isolated from spleens and lymph nodes of TCRP1A mice using anti-mouse CD8a (Ly-2) MicroBeads (Miltenyi Biotec).
CD107 cytotoxicity assay (Degranulation assay): TCRP1A CD8^+ T cells were plated at 50,000 cells per well in a 96 U plate with different concentrations of guanabenz and incubated at 37° C. overnight prior to their use in the assay on the next day. On the day of the assay, the culture supernatant was removed from the cells and the cells were washed once with complete medium to remove the drug. The target cells L1210-P1A-B7.1 were added to the wells at a ratio of 1:1. Control wells containing either only T cells or target cells were also included for each plate. CD107a-APC was added to each well at the same time as addition of the target cells. The plate was then incubated at 37° C. for 90 minutes. At the end of the incubation period the cells were harvested and washed once with PBS. They were stained with anti-mouse CD8-Bv421 antibody for 15 minutes. The cells were then washed and resuspended in PBS and analyzed using FACS Fortessa flow cytometer. Human CD8^+ T cell degranulation was evaluated in a similar way. To induce CD8^+ T cell degranulation, T2 cells loaded with synthetic WT1126-134 peptide (10^6 T2 cells were incubated for 1 hour in 200 μL Optimem medium with 100 μmol/L synthetic peptide at 37° C.) were used as target cells.
(§1) T cells were incubated with guanabenz (10, 20, or 40 μM) for 16 h to 24 h as indicated. Mice received a daily intra-peritoneal injection of guanabenz (5 mg/kg) or vehicle (PBS) from the day of randomization (and the day of ACT when applicable) until the day of sacrifice.
CD107 cytotoxicity assay (Degranulation assay): the assay was carried out as described hereinabove (see Example 1) with different 20 μM guanabenz or different concentrations of alprenolol or sunitinib, as indicated.
T cells were incubated with 20 μM guanabenz for 16 h as indicated.
T cells were incubated with alprenolol (5 or 20 μM) for 16 h as indicated. […]

[2] = tested on: TiRP tumor; assay: Immunodeficient Rag1-/- TiRP+/+ mice, TiRP tumor; format: in vivo, mouse; settings: Rag1-/- TiRP+/+ mice lacking T cells, 5 mg/kg i.p. daily from about 500 mm^3 (day 0) to day 15, vs control; FIG. 4
Experimental: FIG. 4 is a graph showing the tumor size in the immunodeficient Rag1^-/- TiRP^+/+ mice that were injected with 4-OH-Tamoxifen to induce a TiRP tumor. When the tumor reached 500 mm^3 (day 0), the tumor bearing mice were randomized and received daily injections of guanabenz (5 mg/kg, i.p.) or vehicle (PBS, i.p.) until the day of sacrifice (day 15). A fresh solution of […]-Tamoxifen was prepared by dissolving […]-Tamoxifen ([…]) in 100% ethanol and mineral oil (ratio 1:9) followed by 30-min sonication, and injected subcutaneously (2 mg/200 μL per mouse) in the neck area of gender-matched 7 weeks old TiRP mice. Tumor appearance was monitored daily and tumors were measured three times/week. Tumor volume (in mm^3) was calculated by the following formula: Volume=width^2×length/2. Tumor-bearing TiRP mice were randomized based on the tumor size when average volume was 400 mm^3, 500 mm^3 or 1000 mm^3 as indicated. T cells were incubated with guanabenz (10, 20, or 40 μM) for 16 h to 24 h as indicated. Mice received a daily intra-peritoneal injection of guanabenz (5 mg/kg) or vehicle (PBS) from the day of randomization (and the day of ACT when applicable) until the day of sacrifice. As a control, tumors were induced in immunodeficient TiRP mice lacking T cells due to the deletion of the Rag1 gene (Rag 1^-/- TiRP^+/+ mice). […]

[3] = tested on: TiRP tumor; assay: TiRP melanoma model with adoptive cell transfer of activated P1A-specific CD8+ T cells; format: in vivo, mouse
Description: TiRP mice: TiRP mice have been created by crossing Ink4a/Arf^flox/flox mice with mice carrying a transgenic construct controlled by the tyrosinase promoter and driving the expression of H-Ras^12V and Trap1a which encodes a MAGE-type tumor antigen P1A; the promoter is separated from the coding region by a stop cassette made of a floxed self-deleting CreER (Huijbers et al., 2006, Cancer Res 66, 3278-3286). Those mice were backcrossed to a B10.D2 background and bred to homozygosity. TCRP1A mice heterozygous for the H-2Ld/P1A35-43-specific TCR transgene were kept on the B10.D2; Rag1^−/− background (Shanker et al., 2004, J Immunol 172, 5069-5077). All mice used in this study were produced under specific pathogen free (SPF) conditions at the animal facility of the Ludwig Institute for Cancer Research. All the rules concerning animal welfare have been respected according to the 2010/63/EU Directive. All procedures were performed with the approval of the local Animal Ethical Committee, with reference 2015/UCL/MD/15.
A fresh solution of 40H-Tamoxifen was prepared by dissolving 40H-Tamoxifen (Imaginechem) in 100% ethanol and mineral oil (ratio 1:9) followed by 30-min sonication, and injected subcutaneously (2 mg/200 μL per mouse) in the neck area of gender-matched 7 weeks old TiRP mice. Tumor appearance was monitored daily and tumors were measured three times/week. Tumor volume (in mm^3) was calculated by the following formula: Volume=width^2×length/2. Tumor-bearing TiRP mice were randomized based on the tumor size when average volume was 400 mm^3, 500 mm^3 or 1000 mm^3 as indicated.
as §1
For the adoptive cell transfer (ACT), P1A-specific (TCRP1A) CD8^+ T cells were isolated from spleens and lymph nodes of TCRP1A mice as described hereinabove, and stimulated in vitro by co-culture with irradiated (10.000 rads) L1210-P1A-B7.1 cells (Gajewski et al., 1995, J Immunol 154, 5637-5648) at 1:2 ratio (0.5×10^5 CD8^+ T cells and 10^5 L1210-P1A-B7.1 cells per well in 48-well plates) in IMDM (GIBCO) containing 10% fetal bovine serum supplemented with L-arginine (0.55 mM, Merck), L-asparagine (0.24 mM, Merck), glutamine (1.5 mM, Merck), betamercaptoethanol (50 μM, Sigma), 50 UmL^−1 penicillin and […] (Life Technologies). Four days later, TCRP1A CD8^+ T cells were purified on a Lymphoprep gradient (StemCell) and 10^7 living cells were injected intravenously in 200 μL PBS in TiRP-tumor bearing mice on the day of randomization.
Mice received a daily intra-peritoneal injection of alprenolol (5 mg/kg) or vehicle (PBS) from the day of ACT until the day of sacrifice.
T cells were incubated with sunitinib (0.1, 0.3, 0.8, 2.5 or 4 μM) for 16 h as indicated. Mice received a daily dose of sunitinib (20 mg/kg) or vehicle (PBS) by oral gavage from the day of ACT until the day of sacrifice.

NC(N)=N/N=C/c1c(Cl)cccc1Cl [guanabenz, 2-[(E)-(2,6-dichlorophenyl)methylideneamino]guanidine]
T cell degranulation (FACS detection of CD107a) ([1]; guanabenz 20 μM, vs control, FIG. 12A): did significantly increase
T cell degranulation (FACS detection of CD107a) ([1]; guanabenz 10, 20 or 40 μM, co-culture with L1210-P1A-B7.1 target cells, FIG. 1A): increased
TiRP tumor growth [2]: did not induce a decrease
tumor growth ([3]; guanabenz 5 mg/kg i.p. daily with ACT of 10 million activated T cells, day 0 to day 18, vs ACT alone, FIG. 5A): significantly decreased
tumor infiltration of CD8+ T cells (P1A tetramer+ CD8+ T cells among total living cells and among total CD8+ T cells) ([3]; guanabenz 5 mg/kg i.p. daily with ACT, 10 days after ACT, FIG. 5C-D): increased
apoptosis of the adoptively transferred CD8+ T cells ([3]; guanabenz 5 mg/kg i.p. daily with ACT, 10 days after ACT, FIG. 5E): reduced
percentage of CD69+ P1A-specific CD8+ T cells (T cell activation marker) ([3]; guanabenz 5 mg/kg i.p. daily with ACT, 10 days after ACT, FIG. 5F): increased percentage
tumor weight on the day of sacrifice ([3]; guanabenz 5 mg/kg i.p. daily with ACT, day 18, vs ACT alone, FIG. 5B): significantly decreased
